“And” between values parts separate entries of the source, which are not always exact repeats. Identical values can stand only once. Like-named read-outs stand apart in the source and are kept apart here. Positions of bridges follow the written chain, without caps; N, C: chain ends. No end group written: not given here.
Tests used:
[1] = system: Chung model rats; experiment: In vivo model of neuropathic pain (II): spinal nerve ligation (Chung) model, paw withdrawal threshold; set-up: species or system rat; conditions: mean ± SEM, n=6
Method: The spinal nerve ligation (Chung) model was prepared as described in Example 4, above. Briefly, sixty-four adult male Sprague-Dawley rats, 8-9 weeks old, weighing 250-350 g at the time of surgery, were purchased from Charles River UK Ltd. The animals were housed in groups of 4 in an air-conditioned room on a 12-hour light/dark cycle. Food and water were available ad libitum. Animals were allowed to acclimatise to the environment for experiments for three days by leaving them on a raised metal mesh for at least 40 minutes. The baseline paw withdrawal threshold (PWT) was examined using a series of graduated von Frey hairs for 3 consecutive days before surgery and re-assessed on the 7th day after surgery and on the 12th to 14th day after surgery before drug dosing.
Each rat was anaesthetized with 5% isoflurane mixed with oxygen (2 L per min) followed by an intramuscular (i.m.) injection of ketamine 60 mg/kg plus xylazine 10 mg/kg. The back was shaved and sterilized with povidone-iodine. The animal was placed in a prone position and a para-medial incision was made on the skin covering the L4-6 level. The L5 spinal nerve was carefully isolated and tightly ligated with 6/0 silk suture. The wound was then closed in layers after a complete haemostasis. A single dose of antibiotics (Amoxipen, 15 mg/rat, i.p.) was routinely given for prevention of infection after surgery. The animals were placed in a temperature-controlled recovery chamber until fully awake before being returned to their home cages.
Animals with validated neuropathic pain state were randomly divided into 4 experimental groups: Vehicle (5% DMSO first then in 0.9% saline), 3 mg/kg LAT9997, 3 mg/kg LAT9997×1, and 3 mg/kg LAT1233×1. Each group contained 6 animals.
RSVEGS (SEQ ID NO:9; LAT9997), SVEGS (SEQ NO: 62; LAT9997×1) and ALNSS (SEQ ID NO:63; LAT1233×1) were dissolved in 5% DMSO first then in 0.9% saline, which also served as the vehicle control. All compounds were provided from GenScript for Lateral Pharma. All vehicle/compounds were administrated intravenously at 1 ml/kg body weight.
The animals were placed in individual Perspex boxes on a raised metal mesh for at least 40 min. Starting from the filament of lowest force (1 gram (g)), each vFH filament was applied perpendicularly to the centre of the ventral surface of the paw until it slightly bent for 6 seconds. If the animal withdrew or lifted its paw upon stimulation, a filament with force immediately lower than that tested was used. If no response was observed, a filament with force immediately higher was then tested. The lowest amount of force required to induce reliable responses (positive in 2 out of 3 trials) was recorded as the value of the PWT.
PWT was assessed once daily for three days before surgery (pre D1, Pre D2 and D0) and on day 7 following surgery for monitoring the development of mechanical allodynia.
All drug tests were carried out on the 13th to 17th day after surgery. […]
One-way analysis of variance (ANOVA) (IBM statistics SPSS, Version 27) was used for statistical analysis to compare PWT of different groups at the same time points. When appropriate, Fisher's Least Significant Difference (LSD) post-hoc test was used to compare drug treatment groups to the control groups. A paired Student's t-test (Microsoft Excel 365) was used to compare values of different time points in the same group. To characterise the drug-induced change in PWT relative to vehicle, vehicle values were subtracted from the appropriate drug values. The significance level was set at P<0.05.

[2] = system: HKx31 (H3N2); assay type: in vivo, mice; set-up: key to PMN activity score / Viral titre activity score / BAL IL-6 activity score: 0: inactive; 1: less active than the peptide of SEQ ID NO:38; 2: comparable or more active than the peptide of SEQ ID NO:38; conditions: for IL-6 levels in the BAL fluid / viral titres: 10 mg/kg single dose
[3] = system: A549 cells; experiment: A549 proliferation + stress assay (restoration of viability of Taxol-treated cells, CellTiter-Glo); assay type: cell-based, human; set-up: key to Estimated Activity in A549 proliferation + stress assay: Inactive: no activity up to 100 μM; WEAK: some or variable restoration of cell viability at 50-100 μM; MODERATE: moderate dose-dependent restoration of cell viability at >25 μM; STRONG: clear dose-dependent restoration of cell viability from 1-5 μM upwards; conditions: for Estimated Activity in A549 proliferation + stress assay: 350 μM Taxol, 16 hours, peptide 1-100 μM
Method: An assay was developed that involves stressing cells with a dose of the chemotherapeutic agent, Taxol, that causes a 50% inhibition of cell viability when compared to untreated cells. Peptides were then added to the cell cultures at increasing concentrations to assess their ability to restore the viability of the Taxol-treated cells.
Briefly, A549 cells were cultured in opaque-walled multiwell plates with 50000 A549 cells/well in culture medium (DMEM medium ref 11960-044 Thermoscientific, +10% FBS ref 10270-106 Gibco, Thermoscientific, +1% Na pyruvate ref S8636-100 ML, Sigma, +1%, Glutamax ref35050061, Thermoscientific, +1% Penicillin-Streptomycin, ref 11074440001, Sigma) 100 μl per well for 96-well plates. Control wells containing medium without cells were used to obtain a value for background luminescence. Cells were incubated at 37° C. in 5% CO2 overnight.
100 μL of medium+DMSO+peptides or medium+Taxol+peptides (at the different concentrations) were added to each well and incubated for 16 hours at 37° C. 5% CO2.
Cell morphology, viability and confluency were assessed by phase contrast microscopy. The CellTiter-Glo® Luminescent Cell Viability Assay (G7571, Promega—a homogeneous method to determine the number of viable cells in culture based on quantitation of the ATP present) was then used to quantify the number of metabolically active cells, according to the manufacturer's instructions. 100 μl volume of CellTiter-Glo® Reagent was added to the 100 μL volume of cell culture medium present in each well, Contents were mixed for 2 minutes on an orbital shaker to induce cell lysis and after incubating the plates at room temperature for 10 minutes to stabilize luminescent signal luminescence was recorded with an integration time of 0.5 seconds using a CLARIOstar multi well luminometer (BMG Labtech)

[4] = 1 hour after 3 mg/kg intravenously
[5] = 2 hours after 3 mg/kg intravenously
[6] = 4 hours after 3 mg/kg intravenously
[7] = PMN infiltrate in BAL fluid, […], relative to SEQ ID NO:38, 10 mg/kg
[8] = 1 hour after 3 mg/kg intravenously, listed as LAT1233x1
[9] = 1 hour after 3 mg/kg intravenously, listed as LAT1233×1
[10] = 2 hours after 3 mg/kg intravenously, listed as LAT1233x1
[11] = 2 hours after 3 mg/kg intravenously, listed as LAT1233×1
[12] = 4 hours after 3 mg/kg intravenously, listed as LAT1233x1
[13] = 4 hours after 3 mg/kg intravenously, listed as LAT1233×1
[14] = Pre-dosing, 3 mg/kg group, listed as LAT1233x1, 3 mg/kg
[15] = Pre-dosing, 3 mg/kg group, listed as LAT1233×1, 3 mg/kg
[16] = single 10 mg/kg dose, day 3, relative to SEQ ID NO:38
[17] = 1 hour after 3 mg/kg intravenously, listed as LAT9997
[18] = 2 hours after 3 mg/kg intravenously, listed as LAT9997
[19] = 4 hours after 3 mg/kg intravenously, listed as LAT9997
[20] = Pre-dosing, 3 mg/kg group, listed as LAT9997, 3 mg/kg

Substance	IL-6 levels in the BAL fluid [2]	BAL IL-6 activity score ([2]; mouse, in vivo, 10 mg/kg)	Viral titre activity score ([2]; mouse, in vivo, 10 mg/kg)	reducing the PMN infiltrate in BAL fluid, compared with the peptide of SEQ ID NO:38 ([2]; single 10 mg/kg dose)	viral titres ([2]; day 3)	PMN activity score ([2]; mouse, in vivo, 10 mg/kg)	also measured
SVEGS [SEQ ID NO: 62]							contralateral Paw withdrawal threshold [1, 4]: 15.00 ± 0.00 g; ipsilateral Paw withdrawal threshold [1, 4]: 11.17 ± 1.74 ▴** g; contralateral Paw withdrawal threshold [1, 5]: 15.00 ± 0.00 g; ipsilateral Paw withdrawal threshold [1, 5]: 12.67 ± 1.56 ▴*** g; contralateral Paw withdrawal threshold [1, 6]: 15.00 ± 0.00 g; ipsilateral Paw withdrawal threshold [1, 6]: 11.00 ± 1.41 ▴** g; contralateral Paw withdrawal threshold ([1]; Pre-dosing, 3 mg/kg group): 15.00 ± 0.00 g; ipsilateral Paw withdrawal threshold ([1]; Pre-dosing, 3 mg/kg group): 3.33 ± 0.42 g
44 (HIVESS) [compound 44]	as effective	2	1	did not show any changes			PMN activity score [2, 7]: 0
8 (CSGRVSECGF; disulfide 1-8) [compound 8]							Estimated Activity in A549 proliferation + stress assay [3]: Inactive
29 (RIIHNN) [compound 29]	as effective	2	2	as effective	effective	2	
11 (SCRSRPVESSC) [compound 11]							Estimated Activity in A549 proliferation + stress assay [3]: Inactive; restoration of A549 viability ([3]; Taxol-treated A549 cells): did not
41 (RALNSS; SITE 1 Arg 1 is bonded to Ser 6; SITE 6 Ser 6 is bonded to Arg 1) [compound 41]				relatively less effective		1	
50 (RALQSS) [compound 50]	as effective	2	2	relatively less effective	effective	1	
ALNSS [SEQ ID NO: 63]							contralateral Paw withdrawal threshold [1, 8]: 15.00 ± 0.00 g; ipsilateral Paw withdrawal threshold [1, 8]: 10.67 ± 1.67 ▴** g; contralateral Paw withdrawal threshold [1, 9]: 15.00 ± 0.00 g; ipsilateral Paw withdrawal threshold [1, 9]: 10.67 ± 1.67 g; contralateral Paw withdrawal threshold [1, 10]: 14.17 ± 0.83 g; ipsilateral Paw withdrawal threshold [1, 10]: 11.50 ± 1.80 ▴** g; contralateral Paw withdrawal threshold [1, 11]: 14.17 ± 0.83 g; ipsilateral Paw withdrawal threshold [1, 11]: 11.50 ± 1.80 g; contralateral Paw withdrawal threshold [1, 12]: 15.00 ± 0.00 g; ipsilateral Paw withdrawal threshold [1, 12]: 10.17 ± 1.17 ▴** g; contralateral Paw withdrawal threshold [1, 13]: 15.00 ± 0.00 g; ipsilateral Paw withdrawal threshold [1, 13]: 10.17 ± 1.17 g; contralateral Paw withdrawal threshold [1, 14]: 15.00 ± 0.00 g; ipsilateral Paw withdrawal threshold [1, 14]: 3.33 ± 0.42 g; contralateral Paw withdrawal threshold [1, 15]: 15.00 ± 0.00 g; ipsilateral Paw withdrawal threshold [1, 15]: 3.33 ± 0.42 g
52 (PALNTS) [compound 52]	as effective	2	2	did not show any changes	effective		PMN activity score [2, 7]: 0
56 (RSVEG) [compound 56]	as effective	2	2	as effective	effective	2	
47 (RAVESS) [compound 47]	as effective	2	1				PMN activity score [2, 7]: 0
49 (RALNST) [compound 49]	as effective	2					PMN activity score [2, 7]: 0; Viral titre activity score [2, 16]: 0
23 (RPVESS) [compound 23]	as effective	1	2	relatively less effective	effective	1	
43 (RALRTK) [compound 43]				did not show any changes			
57 (RSVE) [compound 57]				relatively less effective		1	BAL IL-6 activity score ([2]; IL-6 in BAL fluid, single 10 mg/kg dose, relative to SEQ ID NO:38): 0; Viral titre activity score [2, 16]: 0
RSVEGS [SEQ ID NO: 9]							contralateral Paw withdrawal threshold [1, 17]: 15.00 ± 0.00 g; ipsilateral Paw withdrawal threshold [1, 17]: 7.83±1.72 g and 7.83 ± 1.72 ^ g; contralateral Paw withdrawal threshold [1, 18]: 15.00 ± 0.00 g; ipsilateral Paw withdrawal threshold [1, 18]: 9.67±1.73 g and 9.67 ± 1.73 ▴* g; contralateral Paw withdrawal threshold [1, 19]: 15.00 ± 0.00 g; ipsilateral Paw withdrawal threshold [1, 19]: 8.17±1.60 g and 8.17 ± 1.60 ^ g; contralateral Paw withdrawal threshold [1, 20]: 14.17 ± 0.83 g; ipsilateral Paw withdrawal threshold [1, 20]: 3.33 ± 0.42 g

Source: patent US12492223B2, “Peptide compositions capable of binding lanthionine synthetase C-like protein (LanCl) and uses thereof” (priority 2021, dated 2025)
